Experimental data from publication PMC10349806 (Nature Communications, 2023).
Substitutions are numbered along the chain they refer to. “And” between values parts separate entries of the source, which are not always exact repeats. Identical values can stand only once.

Assays:
[1] = test system: PfCRT variant H180A; test: CQ uptake assay, oocytes expressing H180A; format: cell-based, Plasmodium falciparum
Protocol: (§1) Site-directed mutagenesis of PfCRT^Dd2 was performed as described using the megaprimer method with overlap extension[21],[54]. The primer pairs used are listed in Supplementary Table 6. Please note that a codon-optimized and oocyte-adapted version of PfCRT^Dd2 was used[22] (Supplementary Fig. 16). The resulting DNA fragment was cloned into the SP64T expression vector and verified by sequencing.
(§2) Oocytes were obtained as described previously. Briefly, adult (>2 years old) female X. laevis frogs (NASCO) were anesthetized in a cooled solution of ethyl 3-amino benzoate methanesulfonate (0.1%, w/v), followed by a surgical removal of parts of the ovary. The ovary lobes were carefully dissected and small pieces of oocytes were incubated in Ca^2+-free ND96 buffer (96 mM NaCl, 2 mM KCl, 1 mM MgCl2 buffered with 5 mM HEPES/NaOH, pH 7.5) supplemented with collagenase D (0.1%, w/v; Roche), BSA (0.5%, w/v), and 9 mm Na2HPO4 at 18 °C for 14-16 h while gentle shaking. After incubation, the oocytes were carefully washed several times with ND96 buffer (96 mM NaCl, 2 mM KCl, 1.8 mM CaCl2, 1 mM MgCl2 buffered with 5 mM HEPES/NaOH, pH 7.5) supplemented with 100 mg l^−1 gentamycin). Defolliculated and healthy-looking stage V-VI oocytes were manually selected for RNA microinjection. The RNA was generated as following: The codon-optimized sequences of PfCRT variants were cloned into the pSP64T expression vector. After vector linearization using the restriction endonucleases BamHI or SalI (New England Biolabs), transcription was performed using the in vitro SP6 mMessage mMachine Kit (Ambion)[34]. The obtained RNA was kept at −80 °C and diluted with nuclease-free water to a concentration of 0.6 μg μl^−1. Precision-bore glass capillary tubes (3.5-inch glass capillaries; Drummond Scientific Co.) were pulled on a vertical puller (P-87 Flaming/Brown micropipette puller, Sutter Instrument Co.), graduated, and placed on a microinjector (Nanoject II Auto-Nanoliter Injector, Drummond Scientific Co.). 50 nl of nuclease-free water alone (control oocytes) or 50 nl of 0.6 μg μl^−1 RNA were injected under stereomicroscopic control. Injected oocytes were incubated for 46–72 h at 18 °C with twice-daily buffer changes before usage in experiments.
Drug uptake assays were performed as described previously[21],[22],[24],[34]. […] The direction of radio-labeled drug transport is here from the mostly acidic extracellular solution (pH 4.5 or 6.0, as indicated) into the oocyte cytosol (pH ∼ 7.2), which corresponds to the efflux of drug from the acidic digestive vacuole (pH 5.2) into the parasite cytoplasm (pH 7.2). The topology of PfCRT in the oolemma is such that both the N- and C-terminus face the extracellular milieu[3],[22]. In the parasite, the N- and C-terminus face the lumen of the digestive vacuole. CQ uptake kinetics were performed by incubating oocytes in ND96 buffer adjusted to a pH of 4.5, 5.0, 5.5, or 6.0 and supplemented with 50 nM [^3H]CQ and one of 7 different CQ concentrations (10 µM, 50 µM, 100 µM, 200 µM, 300 µM, 400 µM, 500 µM CQ). The reaction was stopped at the 60 min time point, which is in the linear uptake range[22],[34] (Supplementary Fig. 17). […] The radioactivity of each sample was measured using a liquid scintillation analyzer Tri-Carb 4910 TR (PerkinElmer). Oocytes that were injected with water instead of RNA were analyzed in parallel, representing the uptake of a drug by diffusion and/or endogenous permeation pathways. […]

[2] = target: T1, PfCRT variant E54A (Plasmodium falciparum, UniProt Q9N623, A220S/E54A/I356T/K76T/M74I/N326S/N75E/Q271E/R371I); test: CQ uptake assay, oocytes expressing E54A; format: cell-based
T1 sequence (Q9N623 1-424 E54A/M74I/N75E/K76T/A220S/Q271E/N326S/I356T/R371I): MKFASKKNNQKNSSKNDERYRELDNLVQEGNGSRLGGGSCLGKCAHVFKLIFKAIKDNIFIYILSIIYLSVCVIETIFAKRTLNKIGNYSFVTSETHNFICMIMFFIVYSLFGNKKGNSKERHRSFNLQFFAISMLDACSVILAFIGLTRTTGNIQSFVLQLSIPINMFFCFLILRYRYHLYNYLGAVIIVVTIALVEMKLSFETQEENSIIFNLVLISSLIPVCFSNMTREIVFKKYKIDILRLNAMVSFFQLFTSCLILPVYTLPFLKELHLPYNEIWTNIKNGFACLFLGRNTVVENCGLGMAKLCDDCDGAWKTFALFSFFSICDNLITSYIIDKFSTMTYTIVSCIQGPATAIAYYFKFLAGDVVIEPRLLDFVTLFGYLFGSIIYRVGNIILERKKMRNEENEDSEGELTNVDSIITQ
Protocol: as §1
as §2, with “Precision-bore glass capillary tubes (3.5-inch glass capillaries; Drummond Scientific Co.) were pulled on a vertical puller (P-87 Flaming/Brown micropipette puller, Sutter Instrument Co.), graduated, and placed on a microinjector (Nanoject II Auto-Nanoliter Injector, Drummond Scientific Co.). 50 nl of nuclease-free water alone (control oocytes) or 50 nl of 0.6 μg μl^−1 RNA were injected under stereomicroscopic control. Injected oocytes were incubated for 46–72 h at 18 °C with twice-daily buffer changes before usage in experiments.” left out
(§3) Drug uptake assays were performed as described previously[21],[22],[24],[34]. […] The radioactivity of each sample was measured using a liquid scintillation analyzer Tri-Carb 4910 TR (PerkinElmer). Oocytes that were injected with water instead of RNA were analyzed in parallel, representing the uptake of a drug by diffusion and/or endogenous permeation pathways. […]

[3] = target: PfCRT^Dd2 (Plasmodium falciparum, UniProt Q9N623, A220S/I356T/K76T/M74I/N326S/N75E/Q271E/R371I); conditions: cited from earlier work
[4] = target: T2, PfCRT variant E95A (Plasmodium falciparum, UniProt Q9N623, A220S/E95A/I356T/K76T/M74I/N326S/N75E/Q271E/R371I); test: CQ uptake assay, oocytes expressing E95A; format: cell-based
T2 sequence (Q9N623 1-424 M74I/N75E/K76T/E95A/A220S/Q271E/N326S/I356T/R371I): T1 sequence (Q9N623 1-424 E54A/M74I/N75E/K76T/A220S/Q271E/N326S/I356T/R371I) with A54E, E95A
Protocol: as §1
as §2, with “Precision-bore glass capillary tubes (3.5-inch glass capillaries; Drummond Scientific Co.) were pulled on a vertical puller (P-87 Flaming/Brown micropipette puller, Sutter Instrument Co.), graduated, and placed on a microinjector (Nanoject II Auto-Nanoliter Injector, Drummond Scientific Co.). 50 nl of nuclease-free water alone (control oocytes) or 50 nl of 0.6 μg μl^−1 RNA were injected under stereomicroscopic control. Injected oocytes were incubated for 46–72 h at 18 °C with twice-daily buffer changes before usage in experiments.” left out
as §3

[5] = H180A, 50 µM CQ, 1 h, mean ± SEM
[6] = CQ transport at pH 4.5 / pH 6.0

Chain of PfCRT^Dd2 (Q9N623 whole entry A220S/I356T/K76T/M74I/N326S/N75E/Q271E/R371I): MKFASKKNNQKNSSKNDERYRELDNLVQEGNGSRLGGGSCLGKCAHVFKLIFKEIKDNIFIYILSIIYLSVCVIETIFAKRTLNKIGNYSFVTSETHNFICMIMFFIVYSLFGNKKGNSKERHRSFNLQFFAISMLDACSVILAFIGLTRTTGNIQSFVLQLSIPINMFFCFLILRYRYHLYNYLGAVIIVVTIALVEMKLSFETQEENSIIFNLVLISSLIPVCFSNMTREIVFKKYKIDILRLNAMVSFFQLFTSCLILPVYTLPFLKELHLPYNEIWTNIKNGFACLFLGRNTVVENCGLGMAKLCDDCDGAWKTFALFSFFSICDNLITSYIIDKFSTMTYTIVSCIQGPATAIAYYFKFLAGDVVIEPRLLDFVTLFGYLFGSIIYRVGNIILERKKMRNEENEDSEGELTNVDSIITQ

In the case of `CCN(CC)CCCC(C)Nc1ccnc2cc(Cl)ccc12` (stereo not shown) [CQ, chloroquine], the “Activity at pH 4.5” value [1, 5] is reported as 1.14 ± 0.27 pmol h-1 oocyte-1, the “Activity at pH 6.0” value [1, 5] is reported as 3.12 ± 0.12 pmol h-1 oocyte-1 and the R-value ([1]; H180A, CQ transport at pH 4.5 / pH 6.0) is reported as 0.36 ± 0.09. The “H180A transport activity pH 4.5” value ([1]; pH 4.5, single replicates, Fig 1d left) was 0.55 pmol oocyte-1 h-1 and 1.69 pmol oocyte-1 h-1 and 1.17 pmol oocyte-1 h-1, the “H180A transport activity pH 6.0” value ([1]; pH 6.0, single replicates, Fig 1d left) was 2.90 pmol oocyte-1 h-1 and 3.04 pmol oocyte-1 h-1 and 3.41 pmol oocyte-1 h-1 and the “Activity at pH 4.5” value ([2]; 50 µM CQ, 1 h, mean ± SEM) was 1.38 ± 0.17 pmol h-1 oocyte-1. For the same compound, the “Activity at pH 6.0” value ([2]; 50 µM CQ, 1 h, mean ± SEM) was 3.36 ± 0.45 pmol h-1 oocyte-1, the R-value [2, 6] was 0.44 ± 0.07 and the “share of full transport velocity” value ([3]; at the pH of the digestive vacuole of 5.2) was 60%. The “pH of maximal CQ transport activity” value [3] was ~ 6.0 pH, the “Activity at pH 4.5” value ([4]; 50 µM CQ, 1 h, mean ± SEM) was 1.21 ± 0.20 pmol h-1 oocyte-1 and the “Activity at pH 6.0” value ([4]; 50 µM CQ, 1 h, mean ± SEM) was 2.74 ± 0.74 pmol h-1 oocyte-1. It also gave a R-value [4, 6] of 0.41 ± 0.11.
